Our source for the Kd values is patent US10976310B2, “Ligand identification by co-fractionation” (MAX-PLANCK-GESELLSCHAFT ZUR FÖRDERUNG DER WISSENSCHAFTEN …, priority 2016, dated 2021).

Molecules are shown by their SMILES. Several values for one entry are separate records, joined by “and”; a condition that tells them apart may be missing. Equal entries are not always repeated.

Experiment [1] addresses T1, Rbp47b (Arabidopsis thaliana, UniProt Q0WW84).
T1 sequence (Q0WW84 1-435): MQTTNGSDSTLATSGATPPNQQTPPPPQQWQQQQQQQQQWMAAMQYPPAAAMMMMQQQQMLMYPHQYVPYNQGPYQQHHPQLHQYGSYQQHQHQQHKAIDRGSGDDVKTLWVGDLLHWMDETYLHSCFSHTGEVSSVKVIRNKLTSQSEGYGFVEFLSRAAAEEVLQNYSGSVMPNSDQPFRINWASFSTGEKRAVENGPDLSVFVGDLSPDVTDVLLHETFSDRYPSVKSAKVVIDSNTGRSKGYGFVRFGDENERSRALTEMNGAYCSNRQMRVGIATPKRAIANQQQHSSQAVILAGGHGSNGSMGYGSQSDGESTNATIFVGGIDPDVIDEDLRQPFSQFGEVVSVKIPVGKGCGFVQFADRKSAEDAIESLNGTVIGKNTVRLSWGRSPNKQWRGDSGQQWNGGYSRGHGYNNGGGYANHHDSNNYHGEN
As to the kind of experiment: MST measurement of ligand binding to recombinant Rbp47b. To be noted: His6-Rbp47b from E. coli, n=3. From the text: We therefore attempted to determine the in vitro binding affinity biophysically using micro-scale thermophoresis (MST) (Jerabek-Willemsen et al. (2011) Molecular interaction studies using microscale thermophoresis. Assay Drug Dev Technol 9: 342-353). MST exploits the effect of size, charge, and hydration shell on the movement of molecules in a temperature gradient. Complex formation resulting in alteration of at least one of the three parameters leads to differential movement, from which the binding affinity can be determined. For the purpose of the MST experiment, Rbp47b was expressed in and purified from E. coli. […] The measured Kd value also corresponds to the ˜20 μM concentration of 2′,3′-cAMP measured in the native Arabidopsis lysate (FIG. 11B).
TIA1 protein was purchased from Origene (Herford, Germany). Rbp47b was cloned as a C-terminal GFP fusion (to increase protein solubility) into the E. coli expression vector pDEST14 containing His6-tag at the N-terminal of the Gateway (Karlsruhe, Germany) cassette. […]
Next day, cells were disrupted with an Avestin (Mannheim, Germany) EmulsiFlex C3 homogenizer and the protein was purified using imidazole-gradient purification in Ni-NTA agarose (Qiagen 34080, Hilden, Germany). […] Protein purity was assessed by SDS-PAGE and protein identification was done using western blot using anti-His6 antibodies. […]

The target of experiment [2] is T2, Rbp47b self-assembly (Arabidopsis thaliana, UniProt Q0WW84).
T2 construct: GFP (C, cleaved yes); made in house; host or cells: E. coli Rosetta
T2 sequence (Q0WW84 1-435): T1 sequence (Q0WW84 1-435)
Briefly: MST measurement of Rbp47b self-assembly. It counts as binding. To be noted: 50 μM 2′,3′-cAMP; in its absence Kd=127.87 nM (128 nM); read-out: Kd of Rbp47b self-assembly in the presence of the ligand. The text has this: In plants 2′,3′-cAMP levels increase rapidly under wounding stress (Van Damme (2014) (loc. cit.)). To test whether 2′,3′-cAMP level changes in other stress conditions we queried metabolomics date from stress time-course of (Caldana et al. (2011) High-density kinetic analysis of the metabolomic and transcriptomic response of Arabidopsis to eight environmental conditions. Plant J 67: 869-884). Shortly, mature Col-0 rosettes (prior bolting) grown in the control environment, were transferred into combinations of light (low light, high light, darkness) and temperature stress conditions (heat and cold) and sampled in multiple time-points until 24 h following stress onset. […] If the interaction takes place in the cytosol, where both, Rbp47b and 2′,3′-cAMP are present, one would expect that 2′,3′-cAMP might influence stress granules formation, meaning oligomerization of Rbp47b. Due to the lack of commercially available membrane permeable derivative of 2′,3′-cAMP molecule, we were unable to follow stress granules formation in vivo. However we tested this hypothesis directly by determining the oligomerization of Rbp47b in the presence and absence of saturating amounts of 2′,3′-cAMP by MST. […] 2′,3′-cAMP, besides being the degradation product of mRNA, could play a regulatory role by influencing the oligomerization of the Rbp47b protein, in turn influencing the formation of SGs. […]

In the case of `Nc1ncnc2c1ncn2[C@@H]1O[C@H](CO)[C@H]2OP(=O)(O)O[C@H]21` [2′,3′-cAMP], the dissociation constant (Kd) (commonly the constant that tells how readily two partners part at equilibrium) in experiment [1] was 1020 nM and 1000 nM; in experiment [2], 8.9 nM and 9 nM.
